ChEMBL document CHEMBL1909605, “Cytotoxic and antivascular 1-methyl-4-(3-fluoro-4-methoxyphenyl)-5-(halophenyl)-imidazoles” (Bioorg Med Chem Lett, 2011)
Converted amounts (≈) assume the structure as drawn. The source made the active and inactive calls. The rule behind the calls is not given here.

Tests used:
L929 = experiment: Growth inhibition of mouse L929 cells after 5 days by MTT assay; type: cell-based; conditions: L929, 120 h
[1] = Growth inhibition of human KB-3-1 cells after 5 days by MTT assay; type: functional, cell-based; conditions: KB 3-1, 120 h
PC-3 = experiment: Growth inhibition of human PC3 cells after 5 days by MTT assay; type: functional, cell-based; conditions: PC-3, 120 h
[2] = Growth inhibition of rat kangaroo PtK2 cells after 5 days by MTT assay; type: cell-based; conditions: Potorous tridactylus, PtK2, 120 h
NHDF = experiment: Growth inhibition of human NHDF cells after 5 days by MTT assay; type: cell-based; conditions: 120 h
HUVEC = experiment: Antiangiogenic activity against human HUVEC cells assessed as suppression of tube formation after 20 hrs incubation by calcein staining-based fluorescent microscopy; type: functional, cell-based
PtK2 = experiment: Disruption of microtubule network in potoroo PtK2 cells at 10 ug/mL after 16 hrs by immunofluorescence staining method; type: cell-based; conditions: Potorous tridactylus
Tubulin (Sus scrofa) = Tubulin (Sus scrofa) (UniProt P02554+P02550); experiment: Inhibition of pig porcine tubulin polymerization at 25 ug/mL by turbidimetric method; type: protein assay; conditions: at 25 µg/mL
Chain of Tubulin (Sus scrofa) (P02550 whole entry, looked up): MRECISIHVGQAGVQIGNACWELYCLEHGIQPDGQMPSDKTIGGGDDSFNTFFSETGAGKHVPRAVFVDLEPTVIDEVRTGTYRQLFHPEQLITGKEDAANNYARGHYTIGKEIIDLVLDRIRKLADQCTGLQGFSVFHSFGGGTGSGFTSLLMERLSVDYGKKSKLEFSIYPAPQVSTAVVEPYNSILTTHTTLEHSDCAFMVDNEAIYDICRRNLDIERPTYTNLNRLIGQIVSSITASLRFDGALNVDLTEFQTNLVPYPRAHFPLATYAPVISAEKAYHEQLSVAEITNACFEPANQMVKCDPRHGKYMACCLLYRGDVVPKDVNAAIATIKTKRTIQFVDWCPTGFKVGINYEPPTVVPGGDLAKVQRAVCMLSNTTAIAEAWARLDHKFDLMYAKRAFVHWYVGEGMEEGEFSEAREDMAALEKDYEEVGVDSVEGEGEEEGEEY
Chain of Tubulin (Sus scrofa) (P02554 whole entry, looked up): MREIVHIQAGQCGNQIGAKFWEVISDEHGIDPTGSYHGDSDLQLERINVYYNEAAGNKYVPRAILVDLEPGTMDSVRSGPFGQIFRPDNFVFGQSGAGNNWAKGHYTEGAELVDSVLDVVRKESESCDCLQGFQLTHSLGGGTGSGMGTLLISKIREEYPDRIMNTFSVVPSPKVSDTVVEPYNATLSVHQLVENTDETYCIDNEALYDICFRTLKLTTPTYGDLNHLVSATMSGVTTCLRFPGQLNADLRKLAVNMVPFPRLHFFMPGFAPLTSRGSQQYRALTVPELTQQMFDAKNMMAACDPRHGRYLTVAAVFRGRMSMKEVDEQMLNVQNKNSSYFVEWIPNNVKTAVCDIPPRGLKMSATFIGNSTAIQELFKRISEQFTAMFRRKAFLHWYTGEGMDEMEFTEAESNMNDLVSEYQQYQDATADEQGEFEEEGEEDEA

IC50 (PC-3) [µM]	inhibition (Tubulin (Sus scrofa))	SMILES	IC50 (L929) [µM]	IC50 [1] [µM]	IC50 [2] [µM]	IC50 (NHDF) [µM]	MIC (HUVEC) [µM]	Activity (PtK2)
1.8	–	COc1ccc(-c2ncn(C)c2-c2cc(F)c(OC)c(OC)c2)cc1F	10	2	5	7.6	10 (≈ 3.6 µg/mL)	Active
0.07	Active	COc1ccc(-c2ncn(C)c2-c2cc(Br)c(OC)c(OC)c2)cc1F	0.025	0.005	0.44	0.175	0.11 (≈ 0.0463 µg/mL)	Active
0.09	Active	COc1ccc(-c2c(-c3cc(OC)c(OC)c(OC)c3)ncn2C)cc1N	0.22	0.07	0.45	0.14	0.29 (≈ 0.107 µg/mL)	Active
0.003	Active	COc1ccc(-c2ncn(C)c2-c2cc(I)c(OC)c(I)c2)cc1F	0.018	0.003	0.33	3.3	0.08 (≈ 0.0451 µg/mL)	Active
0.01	Active	COc1ccc(-c2ncn(C)c2-c2cc(Br)c(OC)c(Br)c2)cc1F	4.4	0.014	1.2	0.4	0.27 (≈ 0.127 µg/mL)	Active

Continued, compound first:

SMILES	IC50 (PC-3) [µM]	inhibition (Tubulin (Sus scrofa))	IC50 (L929) [µM]	IC50 [1] [µM]	IC50 [2] [µM]	IC50 (NHDF) [µM]	MIC (HUVEC) [µM]	Activity (PtK2)
COc1ccc(-c2ncn(C)c2-c2cc(I)c(OC)c(OC)c2)cc1F	–	–	0.04	0.09	0.18	0.04	–	Active
COc1ccc(-c2ncn(C)c2-c2cc(F)c(OC)c(F)c2)cc1F	16	inactive	31	21	23	52	27 (≈ 9.4 µg/mL)	inactive
COc1ccc(-c2ncn(C)c2-c2cc(Cl)c(OC)c(Cl)c2)cc1F	–	–	2.4	1.15	4.3	7.18	–	Active
COc1ccc(-c2c(-c3cc(Cl)c(OC)c(OC)c3)ncn2C)cc1N	–	–	0.135	0.016	0.07	0.97	0.07 (≈ 0.0262 µg/mL)	Active
COc1ccc(-c2ncn(C)c2-c2cc(Cl)c(OC)c(OC)c2)cc1F	–	–	0.22	0.19	0.48	0.24	–	Active
